Experimental data from patent US20230303539A1, “IMMUNOREGULATORY COMPOUND AND ANTITUMOR APPLICATION THEREOF” (SHANGHAITECH UNIVERSITY, priority 2020, published 2023).

Tests used:
Format in all cases: cell-based
[1] = tested on: multiple myeloma cancer cells MM.1S; assay: Cell proliferation inhibition (cell viability, CCK-8) in MM.1S; conditions: Homo sapiens, MM1.S; MM.1S cells, 72 h treatment, CCK-8 cell viability
Text: (§1) The tested cell lines used were: Multiple myeloma cell line MM.1S, human Burkitt's lymphoma cell line Daudi, human acute promyelocytic leukemia cell line NB4, human mantle cell lymphoma cell line JEKO-1, human B-cell lymphoma cell line SU-DHL-4, human mantle cell lymphoma cell line Mino, human diffuse large B-cell lymphoma cell line TMD8, human B-cell lymphoma cell line DOHH2, PBMCs cell and human diffuse large B-cell lymphoma cell line WSU-DLCL2, which were purchased from ATCC (American type Culture Collection) or Cell Bank/Stem Cell Bank, Chinese Academy of Sciences. The medium was RPMI1640 supplemented with 10% FBS (fetal calf serum) and 1% Penicillin-Streptomycin. The cells used were identified as correct cells by STR cells, and were negative for mycoplasma through routine inspections.
(§2) IC50 values of the compounds of the present disclosure (including the compounds in Table 1 and compounds of examples 1-23) were measured using Cell Titer Blue, Cell Titer GLO, or WST reagent from Promega Company. Assay details are as follows: Cells were seeded in 100 μL RPMI1640 medium containing serum at a density of 15,000 cells/well. After 24 h, the inoculated cells were treated with diluted commercial inhibitor and the compounds of the present disclosure to be tested after serial dilution. After the cells were treated with the compounds of the present disclosure to be tested for 72 h, cell viability was determined after adding the cell viability detection kit listed above according to the reagent operating instructions. The negative control was DMSO, and the positive control was a commercial inhibitor, both of which were used to treat the cells through the same method as that of the compounds of the present disclosure. The growth inhibition of the compounds of the present disclosure on cells was plotted by Prism Graphpad software, and the IC50 values of the compounds of the present disclosure were calculated therefrom.
(§3) We tested the activities of the compounds of the present invention (including the compounds in Table 1 and Examples 1-23 compounds) in multiple myeloma cancer cells MM.1S cell and B lymphoma cells Daudi through a dose-dependent manner. The cells were treated with the compounds of the present invention at 10 different successively decreasing concentrations (starting at the highest concentration of […]; 5-fold serial dilutions) for 72 h, and then the cell viability determination was performed in accordance with CCK-8 reagent operating instructions.

B lymphoma cells Daudi = assay: Cell proliferation inhibition (cell viability, CCK-8) in Daudi; conditions: Homo sapiens, 72 h treatment, CCK-8 cell viability
Text: as §1, §2, §3

[2] = tested on: human mantle cell lymphoma cell line Mino; assay: Cell proliferation inhibition (CCK-8) in Mino; conditions: MINO cells, 72 h treatment, read-out: IC50 (half inhibitory concentration) in tumor cells, MINO
Text: as §1, with “The cells used were identified as correct cells by STR cells, and were negative for mycoplasma through routine inspections.” left out
(§4) IC50 values of the compounds of the present disclosure (including the compounds in Table 1 and compounds of examples 1-23) were measured using Cell Titer Blue, Cell Titer GLO, or WST reagent from Promega Company. […] After the cells were treated with the compounds of the present disclosure to be tested for 72 h, cell viability was determined after adding the cell viability detection kit listed above according to the reagent operating instructions. […] The growth inhibition of the compounds of the present disclosure on cells was plotted by Prism Graphpad software, and the IC50 values of the compounds of the present disclosure were calculated therefrom. […]

[3] = tested on: human diffuse large B-cell lymphoma cell line WSU-DLCL2; assay: Cell proliferation inhibition (CCK-8) in WSU-DLCL2; conditions: WSUDLCL2, WSU-DLCL2 cells, 72 h treatment, read-out: IC50 (half inhibitory concentration) in tumor cells, WSU-DLCL2
Text: as §1, with “The cells used were identified as correct cells by STR cells, and were negative for mycoplasma through routine inspections.” left out
as §4

[4] = tested on: human B-cell lymphoma cell line DOHH2; assay: Cell proliferation inhibition (CCK-8) in DOHH2; conditions: DOHH-2, DOHH2 cells, 72 h treatment, read-out: IC50 (half inhibitory concentration) in tumor cells, DOHH2
Text: as §1, with “The cells used were identified as correct cells by STR cells, and were negative for mycoplasma through routine inspections.” left out
as §4

[5] = tested on: human diffuse large B-cell lymphoma cell line TMD8; assay: Cell proliferation inhibition (CCK-8) in TMD8; conditions: TMD8 cells, 72 h treatment, read-out: IC50 (half inhibitory concentration) in tumor cells, TMD8
Text: as §1, with “The cells used were identified as correct cells by STR cells, and were negative for mycoplasma through routine inspections.” left out
as §4

TNF-α = TNF-α inhibition in LPS-stimulated PBMC cells (ELISA); conditions: LPS 1 ng/ml, 18-20 h, FIG. 2
Description: PBMC cells were cultured at 37° C. in 5% CO2 atmosphere, and then seeded in 96-well plates at […]. […] Cells were incubated in medium with or without compounds for 1 h, then stimulated with lipopolysaccharide (LPS; 1 ng/ml), and continually cultured for 18-20 h. Then, the supernatant was collected, diluted with serum-free medium, and tested for TNF-α level by ELISA kit. IC50 was then calculated by Graphpad Prism 7.0. Down-regulation of TNF-α expression is an important way of anti-tumor effect of immunomodulators.

| Compound | IC50 [1] [nM] | IC50 (B lymphoma cells Daudi) [nM] | other results |
| --- | --- | --- | --- |
| Cc1nc2cccc(N)c2c(=O)n1C1CCC(=O)NC1=O (stereo not drawn) [CC-122, Avadomide, reference compound] | 21.8 ± 4.3 | 158 ± 9.48 | IC50 [2]: 55 nM; IC50 [3]: > 1000 nM; IC50 [4]: > 1000 nM; IC50 [5]: 492 nM; inhibition of the level of TNF-α (in words) (TNF-α): the level of TNF-α was inhibited in a dose-dependent manner |
| Cc1nc2cccc(NCc3ccc(CN4CCOCC4)cc3)c2c(=O)n1C1CCC(=O)NC1=O (stereo not drawn) [SIAIS264067, 3-(2-methyl-5-((4-(morpholinomethyl)benzyl)amino)-4-oxoquinazolin-3(4H)-yl)piperidine-2,6-dione] | 8.59 ± 1.32 | 54.6 ± 7.35 | inhibition of the level of TNF-α (in words) (TNF-α): better inhibitory activities than CC-122 |
| Cc1nc2cccc(NCCc3ccccc3)c2c(=O)n1C1CCC(=O)NC1=O (stereo not drawn) [SIAIS264103, 3-(2-methyl-4-oxo-5-(phenethylamino)quinazolin-3(4H)-yl)piperidine-2,6-dione] | 87.3 ± 5.18 | 826 ± 37.3 |  |
| Cc1nc2cccc(NCc3ccccc3F)c2c(=O)n1C1CCC(=O)NC1=O (stereo not drawn) [SIAIS264123, 3-(5-((2-fluorobenzyl)amino)-2-methyl-4-oxoquinazolin-3(4H)-yl)piperidine-2,6-dione] | 57.5 ± 11.5 | 322 ± 22.1 |  |
| Cc1nc2cccc(NCc3ccc(CNC45CC6CC(CC(C6)C4)C5)cc3)c2c(=O)n1C1CCC(=O)NC1=O [SIAIS264156, 3-(5-((4-(((1R,3R,5S)-adamantan-1-ylamino)methyl)benzyl)amino)-2-methyl-4-oxoquinazolin-3(4H)-yl)piperidine-2,6-dione] | 9.64 ± 0.83 | 44.8 ± 19.6 |  |
| Cc1nc2cccc(NCc3ccc(CNC4C5CC6CC(C5)CC4C6)cc3)c2c(=O)n1C1CCC(=O)NC1=O [SIAIS264172, 3-(5-((4-(((1R,2s,3S,5r)-adamantan-2-ylamino)methyl)benzyl)amino)-2-methyl-4-oxoquinazolin-3(4H)-yl)piperidine-2,6-dione] | 2.52 ± 0.68 |  |  |
| Cc1nc2cccc(NCc3ccc4c(c3)OCO4)c2c(=O)n1C1CCC(=O)NC1=O (stereo not drawn) [SIAIS264177, 3-(5-((benzo[d][1,3]dioxol-5-ylmethyl)amino)-2-methyl-4-oxoquinazolin-3(4H)-yl)piperidine-2,6-dione] | 34.7 ± 5.29 | 222 ± 40.9 |  |
| Cc1nc2cccc(NCc3ccc(CO)cc3)c2c(=O)n1C1CCC(=O)NC1=O (stereo not drawn) [SIAIS313055, 3-(5-((4-(hydroxymethyl)benzyl)amino)-2-methyl-4-oxoquinazolin-3(4H)-yl)piperidine-2,6-dione] | 36.4 ± 6.74 | 166 ± 14.7 |  |
| Cc1nc2cccc(NCC3CCC(C(=O)NC45CC6CC(CC(C6)C4)C5)CC3)c2c(=O)n1C1CCC(=O)NC1=O (stereo not drawn) [SIAIS313068, N-((3s,5s,7s)-adamantan-1-yl)-4-(((3-(2,6-dioxopiperidin-3-yl)-2-methyl-4-oxo-3,4-dihydroquinazolin-5-yl)amino)methyl)cyclohexanecarboxamide] | 83.7 ± 2.79 | 492 ± 33.2 |  |
| Cc1nc2cccc(NCc3ccc(CN4CCCCC4)cc3)c2c(=O)n1C1CCC(=O)NC1=O (stereo not drawn) [SIAIS313069, 3-(2-methyl-4-oxo-5-((4-(piperidin-1-ylmethyl)benzyl)amino)quinazolin-3(4H)-yl)piperidine-2,6-dione] | 21.5 ± 5.84 | 129 ± 18.8 |  |
| Cc1nc2cccc(NCc3ccc(CN4CCSCC4)cc3)c2c(=O)n1C1CCC(=O)NC1=O (stereo not drawn) [SIAIS313074, 3-(2-methyl-4-oxo-5-((4-(thiomorpholinomethyl)benzyl)amino)quinazolin-3(4H)-yl)piperidine-2,6-dione] | 10.6 ± 1.95 | 58.7 ± 22.4 | inhibition of the level of TNF-α (in words) (TNF-α): better inhibitory activities than CC-122 |
| Cc1nc2cccc(NCc3ccc(CN4CC(C)CC(C)C4)cc3)c2c(=O)n1C1CCC(=O)NC1=O (stereo not drawn) [SIAIS313075, 3-(5-((4-((3,5-dimethylpiperidin-1-yl)methyl)benzyl)amino)-2-methyl-4-oxoquinazolin-3(4H)-yl)piperidine-2,6-dione] | 16.4 ± 2.82 | 131 ± 27.6 |  |
| Cc1nc2cccc(NCc3ccc(CN4CCCCCC4)cc3)c2c(=O)n1C1CCC(=O)NC1=O (stereo not drawn) [SIAIS313087, 3-(5-((4-(azepan-1-ylmethyl)benzyl)amino)-2-methyl-4-oxoquinazolin-3(4H)-yl)piperidine-2,6-dione] | 4.82 ± 2.36 | 43.5 ± 17.9 | inhibition of the level of TNF-α (in words) (TNF-α): better inhibitory activities than CC-122 |
| Cc1nc2cccc(NCc3ccc(CNC45CC6CC(CC(C6)C4)C5)cc3F)c2c(=O)n1C1CCC(=O)NC1=O (stereo not drawn) [SIAIS355049, 3-(5-((4-((adamantan-1-ylamino)methyl)-2-fluorobenzyl)amino)-2-methyl-4-oxoquinazolin-3(4H)-yl)piperidine-2,6-dione] | 5.61 ± 2.41 | 82.9 ± 25.9 |  |
| Cc1nc2cccc(NCc3ccc(CN4CCCCCC4)cn3)c2c(=O)n1C1CCC(=O)NC1=O (stereo not drawn) [SIAIS355062, 3-(5-(((5-(azepan-1-ylmethyl)pyridin-2-yl)methyl)amino)-2-methyl-4-oxoquinazolin-3(4H)-yl)piperidine-2,6-dione] | 22.1 ± 12 | 105 ± 19.9 |  |
| Cc1nc2cccc(NCc3ccc(CNC45CC6CC(CC(C6)C4)C5)cn3)c2c(=O)n1C1CCC(=O)NC1=O (stereo not drawn) [SIAIS355068, 3-(5-(((5-(((adamantan-1-yl)amino)methyl)pyridin-2-yl)methyl)amino)-2-methyl-4-oxoquinazolin-3(4H)-yl)piperidine-2,6-dione] | 37.7 ± 12.1 | 139 ± 22 |  |
